Measured values published in PMC9794833, “Ligand recognition and activation of neuromedin U receptor 2” (Nature Communications, 2022).

Columns and labels:
NMU2 F224A = target: T1, NMU2 F224A (Homo sapiens, UniProt Q9GZQ4, F224A); test: IP accumulation assay, NMU2 mutant F224A; type: cell-based; conditions: 10 μM R-PSOP
T1 construct: HA signal peptide (N); expressed in transfected cells; host or cells: HEK 293F, transient transfection, PTT5 vector
Experimental: (§1) NMU2 constructs of WT and mutants were constructed into PTT5 vector (Invitrogen), as mentioned above. HEK 293F cells were transiently transfected with WT or mutants with total of 2000 ng plasmid DNA using transfection reagent (PEI MAX 2000, Polysciences) and cultivated at 37 °C with 5% CO2. Cells were collected after 48-h transfection. IP accumulation was tested by IP-One Gq assay kit (Cisbio Bioassays, 62IPAPEJ) following the instruction manual. In general, cells were resuspended with 1× HBSS buffer containing 20 mM LiCl (stimulation buffer) and seeded into the white 384-well microplates (Proxi Plate^TM-384 Plus, PerkinElmer) with a density of 20,000 per well. Cells were preincubated with 10^−5 M R-PSOP (provided by Boehringer Ingelheim company, Germany) and gradient concentration from 10^−4 to 10^−11 M of NMU-25 or gradient concentration 10^−4 to 10^−11 M of NMU-25 alone in stimulation buffer at 37 °C for 90 min. The cryptate-labeled anti-IP1 monoclonal antibody and d2-labeled IP1 were diluted with lysis & detection buffer (1:20) and added to each well by 3 μl, respectively. The plates were incubated at room temperature for 60 minutes and then read in a Synerg^TM H1 microplate reader (BioTek) with excitation at 330 nm and emission at 620 and 665 nm. The IP1 production was calculated by a standard dose–response curve and analyzed by GraphPad Prism 8.0.

NMU2 [1] = conditions: cited from earlier work
NMU2 E127A = target: T2, NMU2 E127A (Homo sapiens, UniProt Q9GZQ4, E127A); test: IP accumulation assay, NMU2 mutant E127A; type: cell-based; conditions: 10 μM R-PSOP
T2 construct: HA signal peptide (N); expressed in transfected cells; host or cells: HEK 293F
Experimental: as §1

NMU2 [2] = target: T3, NMU2 (Homo sapiens, UniProt Q9GZQ4); test: IP accumulation assay (IP-One Gq kit), WT NMU2; type: cell-based; conditions: 10 μM R-PSOP
T3 construct: HA signal peptide (N); expressed in transfected cells; host or cells: HEK 293F
Experimental: as §1

NMU2 H285A = target: T4, NMU2 H285A (Homo sapiens, UniProt Q9GZQ4, H285A); test: IP accumulation assay, NMU2 mutant H285A; type: cell-based; conditions: 10 μM R-PSOP
T4 construct: HA signal peptide (N); expressed in transfected cells; host or cells: HEK 293F, transient transfection, PTT5 vector
Experimental: as §1

NMU2 F177C = target: T5, NMU2 F177C (Homo sapiens, UniProt Q9GZQ4, F177C); test: IP accumulation assay, NMU2 mutant F177C; type: cell-based; conditions: 10 μM R-PSOP
T5 construct: HA signal peptide (N); expressed in transfected cells; host or cells: HEK 293F, transient transfection, PTT5 vector
Experimental: as §1

NMU2 F131L = target: T6, NMU2 F131L (Homo sapiens, UniProt Q9GZQ4, F131L); test: IP accumulation assay, NMU2 mutant F131L; type: cell-based; conditions: 10 μM R-PSOP
T6 construct: HA signal peptide (N); expressed in transfected cells; host or cells: HEK 293F, transient transfection, PTT5 vector
Experimental: as §1

NMU2 E102A = target: T7, NMU2 E102A (Homo sapiens, UniProt Q9GZQ4, E102A); test: IP accumulation assay, NMU2 mutant E102A; type: cell-based; conditions: 10 μM R-PSOP
T7 construct: HA signal peptide (N); expressed in transfected cells; host or cells: HEK 293F
Experimental: as §1

T1 sequence (Q9GZQ4 whole entry F224A): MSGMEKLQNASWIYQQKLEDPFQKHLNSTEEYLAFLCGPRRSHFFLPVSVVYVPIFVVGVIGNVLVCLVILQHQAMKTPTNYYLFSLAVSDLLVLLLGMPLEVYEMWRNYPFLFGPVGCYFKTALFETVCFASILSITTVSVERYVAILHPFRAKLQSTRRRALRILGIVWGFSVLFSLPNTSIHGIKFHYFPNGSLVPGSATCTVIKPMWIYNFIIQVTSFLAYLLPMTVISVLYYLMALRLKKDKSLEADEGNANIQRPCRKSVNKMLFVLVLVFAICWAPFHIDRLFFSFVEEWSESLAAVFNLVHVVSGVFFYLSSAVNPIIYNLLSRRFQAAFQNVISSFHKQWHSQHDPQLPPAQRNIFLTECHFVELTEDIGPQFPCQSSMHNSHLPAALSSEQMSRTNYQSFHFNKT
T7 sequence (Q9GZQ4 whole entry E102A): as the sequence (Q9GZQ4 whole entry F224A) above, with E102A, A224F counted along it
T5 sequence (Q9GZQ4 whole entry F177C): as the sequence (Q9GZQ4 whole entry F224A) above, with F177C, A224F counted along it
T6 sequence (Q9GZQ4 whole entry F131L): as the sequence (Q9GZQ4 whole entry F224A) above, with F131L, A224F counted along it
T2 sequence (Q9GZQ4 whole entry E127A): as the sequence (Q9GZQ4 whole entry F224A) above, with E127A, A224F counted along it
T4 sequence (Q9GZQ4 whole entry H285A): as the sequence (Q9GZQ4 whole entry F224A) above, with A224F, H285A counted along it
T3 sequence (Q9GZQ4 whole entry): as the sequence (Q9GZQ4 whole entry F224A) above, with A224F counted along it

Compound: O=C(Nc1ccccc1)Nc1cnc2c(c1)C[C@@]1(CN3CCC1CC3)O2 [R-PSOP]
- Ratio EC50(NmU-25 + R-PSOP)/EC50(NmU-25) (NMU2 F224A): 4
- Ratio change EC50 ratio (WT)/EC50 ratio (mutant) (NMU2 F224A): 3 fold
- antagonist inhibition effect of R-PSOP (in words) (NMU2 F224A; IP accumulation): abolished
- Ki (NMU2 [1]): 52 nM
- Ratio EC50(NmU-25 + R-PSOP)/EC50(NmU-25) (NMU2 E127A): 2
- Ratio change EC50 ratio (WT)/EC50 ratio (mutant) (NMU2 E127A): 6.5 fold
- Ratio EC50(NmU-25 + R-PSOP)/EC50(NmU-25) (NMU2 [2]): 13
- Ratio change EC50 ratio (WT)/EC50 ratio (mutant) (NMU2 [2]): 1 fold
- Ratio EC50(NmU-25 + R-PSOP)/EC50(NmU-25) (NMU2 H285A): 20
- Ratio change EC50 ratio (WT)/EC50 ratio (mutant) (NMU2 H285A): 0.65 fold
- Ratio EC50(NmU-25 + R-PSOP)/EC50(NmU-25) (NMU2 F177C): 8
- Ratio change EC50 ratio (WT)/EC50 ratio (mutant) (NMU2 F177C): 1.6 fold
- antagonistic effect of R-PSOP (in words) (NMU2 F177C; IP accumulation): decreased the antagonistic effect of R-PSOP significantly
- Ratio EC50(NmU-25 + R-PSOP)/EC50(NmU-25) (NMU2 F131L): 3
- Ratio change EC50 ratio (WT)/EC50 ratio (mutant) (NMU2 F131L): 4 fold
- antagonistic effect of R-PSOP (in words) (NMU2 F131L; IP accumulation): decreased the antagonistic effect of R-PSOP significantly
- Ratio EC50(NmU-25 + R-PSOP)/EC50(NmU-25) (NMU2 E102A): 2
- Ratio change EC50 ratio (WT)/EC50 ratio (mutant) (NMU2 E102A): 6.5 fold
- antagonist inhibition effect of R-PSOP (in words) (NMU2 E102A; IP accumulation): abolished
